Results from patent publication US20230144459A1, “SHEDDING BLOCKING AGENTS WITH INCREASED STABILITY” (BIOND BIOLOGICS LTD., priority 2020, published 2023).

Biological target: T1, human CD28 (shedding of sCD28 from cells) (Homo sapiens, UniProt P10747)
T1 construct: endogenous in cells; host or cells: CD4 T cells and PBMCs from fresh blood of healthy donors
Experiment: Inhibition of CD28 shedding in stimulated lymphocytes (CD4 with PHA and IL-2 or PBMCs with SEB)
Format: cell-based
Conditions: percent of soluble CD28 reduction from basal stimulation; constructs and isotype 3 μM, MMPi TMI-1 1 μM

T1 sequence (P10747 19-220): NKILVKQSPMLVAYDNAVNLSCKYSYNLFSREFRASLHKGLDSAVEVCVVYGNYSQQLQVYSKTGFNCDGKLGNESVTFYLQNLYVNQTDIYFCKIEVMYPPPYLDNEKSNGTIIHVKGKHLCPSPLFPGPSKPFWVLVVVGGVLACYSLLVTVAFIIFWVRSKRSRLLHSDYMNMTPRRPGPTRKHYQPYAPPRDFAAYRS

`CC#CCOc1ccc(S(=O)(=O)N2CCSC(C)(C)[C@@H]2C(=O)NO)cc1` [MMPi, TMI-1, reference compound] was tested, and the “Inhibition (%) of CD28 shedding” value was 60.5%.
